Values quoted from earlier work as cited in patent publication US12453351B2, “Herbicide compatibility improvement” (Monsanto Technology LLC, priority 2005, dated 2025).

Details: at 25° C.

O=C(O)CNCP(=O)(O)O [Glyphosate]
Solubility in water: 1.16 % by weight
